{
  "source": "patent US20150297629A1",
  "about": "“MODULATION OF RENIN-ANGIOTENSIN SYSTEM (RAS) RELATED DISEASES BY ANGIOTENSINOGEN” (Isis Pharmaceuticals, Inc,, priority 2012, published 2015)",
  "key": {"angiotensinogen mRNA": {"test_system": "angiotensinogen mRNA", "assay": "Real-time PCR of angiotensinogen mRNA in SHR tissues, Study 3", "assay_type": "in vivo, Spontaneously hypertensive (SHR) rats", "details": "3 weeks, oligonucleotides 100 mg/kg/week, Captopril 150 mg/kg/day", "experimental": "(§1) A group of SHR was injected with 100 mg/kg/week of ISIS 552668 administered for 3 weeks. A control group of SHR was injected with phosphate buffered saline (PBS) administered weekly for 3 weeks. Another control group of SHR was injected with 100 mg/kg/week of a control oligonucleotide (a nucleotide not targeted to angiotensinogen) administered for 3 weeks.\n[…] The mRNA levels were normalized using the housekeeping gene, GAPDH. […] Results are presented as percent inhibition of angiotensinogen, relative to control."}, "angiotensinogen protein": {"test_system": "angiotensinogen protein", "assay": "ELISA of angiotensinogen plasma levels in SHR, Study 3", "assay_type": "in vivo, Spontaneously hypertensive (SHR) rats", "details": "3 weeks, oligonucleotides 100 mg/kg/week, Captopril 150 mg/kg/day", "experimental": "as §1\nAngiotensinogen plasma levels were measured by ELISA (IBL International, Toronto, Canada). […] Results are presented as percent inhibition of angiotensinogen, relative to PBS control."}, "Dahl/SS rats": {"test_system": "Dahl/SS rats", "assay": "Blood pressure by tail-cuff method in Dahl/SS rats", "assay_type": "in vivo, Dahl/Salt Sensititive (Dahl/SS) rats", "details": "female Dahl/SS rats, 8% NaCl diet; 3 weeks; ISIS oligonucleotides 40 mg/kg/week, Captopril 150 mg/kg daily", "experimental": "The rats were fed a diet with 8% NaCl. A group of female Dahl/SS rats was injected with 40 mg/kg/week of ISIS 552668 administered for 3 weeks. A group of female Dahl/SS rats was injected with 40 mg/kg/week of control oligonucleotides ISIS 141923 administered for 3 weeks. […] A control group of female Dahl/SS rats was injected with phosphate buffered saline (PBS) administered weekly for 3 weeks. Another control group constituted a group of Dahl/Salt Resistant (Dahl/SR) rats injected with phosphate buffered saline (PBS) administered weekly for 3 weeks.\nSystolic blood pressure (SBP), mean arterial pressure (MAP), and diastolic blood pressure (DBP) in the rats was measured by the tail-cuff volume-pressure method (Kent Scientific). The results are presented in Table 12, expressed as the percent decrease in blood pressure compared to the control SHR group."}, "renin mRNA": {"test_system": "renin mRNA", "assay": "Real-time PCR of kidney renin mRNA in SHR, Study 3", "assay_type": "in vivo, Spontaneously hypertensive (SHR) rats", "details": "3 weeks", "experimental": "A control group of SHR was injected with phosphate buffered saline (PBS) administered weekly for 3 weeks. Another control group of SHR was injected with 100 mg/kg/week of a control oligonucleotide (a nucleotide not targeted to angiotensinogen) administered for 3 weeks. […] RNA was extracted from kidney tissue for real-time PCR analysis of renin, using primer probe set rRenin2 (forward sequence [NT], designated herein as SEQ ID NO: 21; reverse sequence [NT], designated herein as SEQ ID NO: 22; probe sequence [NT], designated herein as SEQ ID NO: 23). The mRNA levels were normalized using the housekeeping gene, GAPDH. […] Increase in renin in the body is deleterious to the overall health of the animal (Nguyen and Muller, The Biology of the (Pro)Renin Receptor, J Am Soc Nephrol, 2010 January, 21(1):18-23). […] Results are presented as percent expression of renin, relative to control."}, "SHR [1]": {"test_system": "SHR", "assay": "Mean arterial pressure by tail-cuff method in SHR, Study 3", "assay_type": "in vivo, Spontaneously hypertensive (SHR) rats", "details": "ISIS 552668 and control oligonucleotide 100 mg/kg/week, Captopril 150 mg/kg/day", "experimental": "A control group of SHR was injected with phosphate buffered saline (PBS) administered weekly for 3 weeks. Another control group of SHR was injected with 100 mg/kg/week of a control oligonucleotide (a nucleotide not targeted to angiotensinogen) administered for 3 weeks. […] Mean arterial pressure (MAP) in the rats was measured by the tail-cuff volume-pressure method (Kent Scientific, Torrington, Conn.)."}, "female SHR rats": {"test_system": "female SHR rats", "assay": "Blood pressure by tail-cuff method in female SHR rats with subsequent Captopril, Study 2", "assay_type": "in vivo, Spontaneously hypertensive (SHR) rats", "details": "Captopril 50 mg/kg/day for 4 days, no ASO", "experimental": "A control group of female SHR rats was injected with phosphate buffered saline (PBS) administered weekly for 2 weeks. Another control group constituted a group of wild-type rats injected with phosphate buffered saline (PBS) administered weekly for 2 weeks. […] Systolic blood pressure (SBP), mean arterial pressure (MAP), and diastolic blood pressure (DBP) in the rats was measured by the tail-cuff volume-pressure method (Kent Scientific, Torrington, Conn.)."}, "SHR [2]": {"test_system": "SHR", "assay": "Systolic blood pressure by tail-cuff method in SHR before and after ISIS 552668 added to chronic Captopril, Study 4", "assay_type": "in vivo, Spontaneously hypertensive (SHR) rats", "details": "for Blood pressure (SBP), After ISIS 552668 dosing: then 50 mg/kg ISIS 552668 added"}, "[3]": {"details": "Captopril 25 mg/kg/day for 10 weeks"}, "[4]": {"details": "Captopril 50 mg/kg/day for 10 weeks"}, "[5]": {"details": "Captopril 100 mg/kg/day for 10 weeks"}},
  "data": [
    {"smiles": "C[C@H](CS)C(=O)N1CCC[C@H]1C(=O)O", "note": "[Captopril, reference compound]", "values": [
      {"measurement": "Percent inhibition of angiotensinogen mRNA compared to the PBS control, Heart", "setting": "angiotensinogen mRNA", "result": 0, "unit": "%"},
      {"measurement": "Percent inhibition of angiotensinogen mRNA compared to the PBS control, Kidney", "setting": "angiotensinogen mRNA", "result": 41, "unit": "%"},
      {"measurement": "Percent inhibition of angiotensinogen mRNA compared to the PBS control, Liver", "setting": "angiotensinogen mRNA", "result": 0, "unit": "%"},
      {"measurement": "Percent inhibition of angiotensinogen protein in the plasma compared to the PBS control", "setting": "angiotensinogen protein", "result": 24, "unit": "%"},
      {"measurement": "DBP", "setting": "Dahl/SS rats", "result": 111, "unit": "mm Hg"},
      {"measurement": "MAP", "setting": "Dahl/SS rats", "result": 128, "unit": "mm Hg"},
      {"measurement": "SBP", "setting": "Dahl/SS rats", "result": 162, "unit": "mm Hg"},
      {"measurement": "Induction of kidney renin expression compared to that with ISIS 552668", "setting": "renin mRNA; Captopril 150 mg/kg/day versus ISIS 552668 100 mg/kg/week", "result": "about three-fold"},
      {"measurement": "Percent increase of kidney renin mRNA", "setting": "renin mRNA; oligonucleotides 100 mg/kg/week, Captopril 150 mg/kg/day, PBS = 100", "result": 1110, "unit": "%"},
      {"measurement": "MAP, Week 1", "setting": "SHR [1]", "result": 107, "unit": "mm Hg"},
      {"measurement": "MAP, Week 2", "setting": "SHR [1]", "result": 109, "unit": "mm Hg"},
      {"measurement": "MAP, Week 3", "setting": "SHR [1]", "result": 112, "unit": "mm Hg"},
      {"measurement": "DBP", "setting": "female SHR rats", "result": 97, "unit": "mm Hg"},
      {"measurement": "MAP", "setting": "female SHR rats", "result": 113, "unit": "mm Hg"},
      {"measurement": "SBP", "setting": "female SHR rats", "result": 145, "unit": "mm Hg"},
      {"measurement": "Blood pressure (SBP), Before ISIS 552668 dosing", "setting": "SHR [2]; [3]", "result": 159},
      {"measurement": "Blood pressure (SBP), After ISIS 552668 dosing", "setting": "SHR [2]; [3]", "result": 153},
      {"measurement": "Blood pressure (SBP), Before ISIS 552668 dosing", "setting": "SHR [2]; [4]", "result": 147},
      {"measurement": "Blood pressure (SBP), After ISIS 552668 dosing", "setting": "SHR [2]; [4]", "result": 133},
      {"measurement": "Blood pressure (SBP), Before ISIS 552668 dosing", "setting": "SHR [2]; [5]", "result": 137},
      {"measurement": "Blood pressure (SBP), After ISIS 552668 dosing", "setting": "SHR [2]; [5]", "result": 127},
      {"measurement": "Blood pressure (SBP), Before ISIS 552668 dosing", "setting": "SHR [2]; Captopril 200 mg/kg/day for 10 weeks", "result": 135}
    ]}
  ]
}
